{"source": "ChEMBL document CHEMBL5584358", "about": "“Fungal Coculture of Herpotrichia sp. and Trametes versicolor Induces Production of Diverse Metabolites with Anti-Parkinson's Neuroprotective Activity” (J Nat Prod, 2024)", "key": {"PC-12 [1]": {"test_system": "PC-12", "assay": "Neuroprotective activity against MPP+-induced rat PC12 cell death assessed as downregulation of Ikbkg gene expression at 1 to 10 uM preincubated for 1 hr followed by MPP+ addition and measured after 24 hrs by RNA sequencing analysis relative to control", "type": "functional", "settings": "dose 1-10 µM; time 25 hrs"}, "PC-12 [2]": {"test_system": "PC-12", "assay": "Neuroprotective activity against MPP+-induced rat PC12 cell death assessed as upregulation of Dars2 gene expression at 1 to 10 uM preincubated for 1 hr followed by MPP+ addition and measured after 24 hrs by RNA sequencing analysis relative to control", "type": "functional", "settings": "dose 1-10 µM; time 25 hrs"}, "PC-12 [3]": {"test_system": "PC-12", "assay": "Cytotoxicity against rat PC12 cells assessed as effect on cell viability at 20 uM measured after 24 hrs by CCK-8 assay", "type": "toxicity, cell-based", "settings": "pc-12, 24 h"}, "PC-12 [4]": {"test_system": "PC-12", "assay": "Neuroprotective activity against MPP+-induced rat PC12 cell death assessed as downregulation of IL33 gene expression at 1 to 10 uM preincubated for 1 hr followed by MPP+ addition and measured after 24 hrs by RNA sequencing analysis relative to control", "type": "functional", "settings": "dose 1-10 µM; time 25 hrs"}, "PC-12 [5]": {"test_system": "PC-12", "assay": "Neuroprotective activity against MPP+-induced rat PC12 cell death assessed as downregulation of Dmpk gene expression at 1 to 10 uM preincubated for 1 hr followed by MPP+ addition and measured after 24 hrs by RNA sequencing analysis relative to control", "type": "functional", "settings": "dose 1-10 µM; time 25 hrs"}, "PC-12 [6]": {"test_system": "PC-12", "assay": "Neuroprotective activity against MPP+-induced rat PC12 cell death assessed as upregulation of Insr gene expression at 1 to 10 uM preincubated for 1 hr followed by MPP+ addition and measured after 24 hrs by RNA sequencing analysis relative to control", "type": "functional", "settings": "dose 1-10 µM; time 25 hrs"}, "PC-12 [7]": {"test_system": "PC-12", "assay": "Neuroprotective activity against MPP+-induced rat PC12 cell death assessed as downregulation of Adora1 gene expression at 1 to 10 uM preincubated for 1 hr followed by MPP+ addition and measured after 24 hrs by RNA sequencing analysis relative to control", "type": "functional", "settings": "dose 1-10 µM; time 25 hrs"}, "PC-12 [8]": {"test_system": "PC-12", "assay": "Neuroprotective activity against MPP+-induced rat PC12 cell death assessed as upregulation of Lck gene expression at 1 to 10 uM preincubated for 1 hr followed by MPP+ addition and measured after 24 hrs by RNA sequencing analysis relative to control", "type": "functional", "settings": "dose 1-10 µM; time 25 hrs"}, "PC-12 [9]": {"test_system": "PC-12", "assay": "Neuroprotective activity against MPP+-induced rat PC12 cell death assessed as upregulation of Rps27a gene expression at 1 to 10 uM preincubated for 1 hr followed by MPP+ addition and measured after 24 hrs by RNA sequencing analysis relative to control", "type": "functional", "settings": "dose 1-10 µM; time 25 hrs"}, "PC-12 [10]": {"test_system": "PC-12", "assay": "Neuroprotective activity against MPP+-induced rat PC12 cell death assessed as upregulation of Cebpd gene expression at 1 to 10 uM preincubated for 1 hr followed by MPP+ addition and measured after 24 hrs by RNA sequencing analysis relative to control", "type": "functional", "settings": "dose 1-10 µM; time 25 hrs"}, "PC-12 [11]": {"test_system": "PC-12", "assay": "Neuroprotective activity against MPP+-induced rat PC12 cell death assessed as cell viability at 20 uM preincubated for 1 hr followed by MPP+ addition and measured after 24 hrs by CCK-8 assay (reference value: 57%)", "type": "functional", "settings": "time 25 hrs, read-out: Activity"}, "PC-12 [12]": {"test_system": "PC-12", "assay": "Neuroprotective activity against MPP+-induced rat PC12 cell death assessed as downregulation of Ugt1a3 gene expression at 1 to 10 uM preincubated for 1 hr followed by MPP+ addition and measured after 24 hrs by RNA sequencing analysis relative to control", "type": "functional", "settings": "dose 1-10 µM; time 25 hrs"}, "PC-12 [13]": {"test_system": "PC-12", "assay": "Neuroprotective activity against MPP+-induced rat PC12 cell death assessed as downregulation of Sesn2 gene expression at 1 to 10 uM preincubated for 1 hr followed by MPP+ addition and measured after 24 hrs by RNA sequencing analysis relative to control", "type": "functional", "settings": "dose 1-10 µM; time 25 hrs"}, "PC-12 [14]": {"test_system": "PC-12", "assay": "Neuroprotective activity against MPP+-induced rat PC12 cell death assessed as increase in cell viability at […] preincubated for 1 hr followed by MPP+ addition and measured after 24 hrs by CCK-8 assay", "type": "functional, cell-based", "settings": "time 25.0 hrs"}, "PC-12 [15]": {"test_system": "PC-12", "assay": "Neuroprotective activity against MPP+-induced rat PC12 cell death assessed as downregulation of Cflar gene expression at 1 to 10 uM preincubated for 1 hr followed by MPP+ addition and measured after 24 hrs by RNA sequencing analysis relative to control", "type": "functional", "settings": "dose 1-10 µM; time 25 hrs"}, "PC-12 [16]": {"test_system": "PC-12", "assay": "Neuroprotective activity against MPP+-induced rat PC12 cell death assessed as upregulation of Cyp2d4 gene expression at 1 to 10 uM preincubated for 1 hr followed by MPP+ addition and measured after 24 hrs by RNA sequencing analysis relative to control", "type": "functional", "settings": "dose 1-10 µM; time 25 hrs"}, "PC-12 [17]": {"test_system": "PC-12", "assay": "Neuroprotective activity against MPP+-induced rat PC12 cell death assessed as upregulation of Mtr gene expression at 1 to 10 uM preincubated for 1 hr followed by MPP+ addition and measured after 24 hrs by RNA sequencing analysis relative to control", "type": "functional", "settings": "dose 1-10 µM; time 25 hrs"}, "PC-12 [18]": {"test_system": "PC-12", "assay": "Neuroprotective activity against MPP+-induced rat PC12 cell death assessed as upregulation of Scn4b gene expression at 1 to 10 uM preincubated for 1 hr followed by MPP+ addition and measured after 24 hrs by RNA sequencing analysis relative to control", "type": "functional", "settings": "dose 1-10 µM; time 25 hrs"}, "PC-12 [19]": {"test_system": "PC-12", "assay": "Neuroprotective activity against MPP+-induced rat PC12 cell death assessed as upregulation of Rph3a gene expression at 1 to 10 uM preincubated for 1 hr followed by MPP+ addition and measured after 24 hrs by RNA sequencing analysis relative to control", "type": "functional", "settings": "dose 1-10 µM; time 25 hrs"}, "PC-12 [20]": {"test_system": "PC-12", "assay": "Neuroprotective activity against MPP+-induced rat PC12 cell death assessed as downregulation of Ifitm3 gene expression at 1 to 10 uM preincubated for 1 hr followed by MPP+ addition and measured after 24 hrs by RNA sequencing analysis relative to control", "type": "functional", "settings": "dose 1-10 µM; time 25 hrs"}, "PC-12 [21]": {"test_system": "PC-12", "assay": "Neuroprotective activity against MPP+-induced rat PC12 cell death assessed as downregulation of F8 gene expression at 1 to 10 uM preincubated for 1 hr followed by MPP+ addition and measured after 24 hrs by RNA sequencing analysis relative to control", "type": "functional", "settings": "dose 1-10 µM; time 25 hrs"}, "PC-12 [22]": {"test_system": "PC-12", "assay": "Neuroprotective activity against MPP+-induced rat PC12 cell death assessed as downregulation of Vnn1 gene expression at 1 to 10 uM preincubated for 1 hr followed by MPP+ addition and measured after 24 hrs by RNA sequencing analysis relative to control", "type": "functional", "settings": "dose 1-10 µM; time 25 hrs"}, "PC-12 [23]": {"test_system": "PC-12", "assay": "Neuroprotective activity against MPP+-induced rat PC12 cell death assessed as downregulation of Bdnf gene expression at 1 to 10 uM preincubated for 1 hr followed by MPP+ addition and measured after 24 hrs by RNA sequencing analysis relative to control", "type": "functional", "settings": "dose 1-10 µM; time 25 hrs"}, "PC-12 [24]": {"test_system": "PC-12", "assay": "Neuroprotective activity against MPP+-induced rat PC12 cell death assessed as downregulation of Cyp2b1 gene expression at 1 to 10 uM preincubated for 1 hr followed by MPP+ addition and measured after 24 hrs by RNA sequencing analysis relative to control", "type": "functional", "settings": "dose 1-10 µM; time 25 hrs"}, "PC-12 [25]": {"test_system": "PC-12", "assay": "Neuroprotective activity against MPP+-induced rat PC12 cell death assessed as upregulation of Cdh1 gene expression at 1 to 10 uM preincubated for 1 hr followed by MPP+ addition and measured after 24 hrs by RNA sequencing analysis relative to control", "type": "functional", "settings": "dose 1-10 µM; time 25 hrs"}, "PC-12 [26]": {"test_system": "PC-12", "assay": "Neuroprotective activity against MPP+-induced rat PC12 cell death assessed as downregulation of Xiap gene expression at 1 to 10 uM preincubated for 1 hr followed by MPP+ addition and measured after 24 hrs by RNA sequencing analysis relative to control", "type": "functional", "settings": "dose 1-10 µM; time 25 hrs"}}, "note": "Active and inactive are the calls of the source. The calls are words filed in the database; no cut-off is given here.", "data": [{"compound": "C=C1CC[C@H]2C(C)(C)[C@@H](O)C[C@@H](O)[C@]2(C)[C@H]1CO", "values": [{"measurement": "log2FC", "setting": "PC-12 [1]", "value": ">0.4"}, {"measurement": "log2FC", "setting": "PC-12 [2]", "value": ">0.4"}, {"measurement": "Activity", "setting": "PC-12 [3]", "value": "Non-Toxic"}, {"measurement": "log2FC", "setting": "PC-12 [4]", "value": ">0.4"}, {"measurement": "log2FC", "setting": "PC-12 [5]", "value": ">0.4"}, {"measurement": "log2FC", "setting": "PC-12 [6]", "value": ">0.4"}, {"measurement": "log2FC", "setting": "PC-12 [7]", "value": ">0.4"}, {"measurement": "log2FC", "setting": "PC-12 [8]", "value": ">0.4"}, {"measurement": "log2FC", "setting": "PC-12 [9]", "value": ">0.4"}, {"measurement": "log2FC", "setting": "PC-12 [10]", "value": ">0.4"}, {"measurement": "viability at 20 µM", "setting": "PC-12 [11]", "value": 71, "unit": "%"}, {"measurement": "log2FC", "setting": "PC-12 [12]", "value": ">0.4"}, {"measurement": "log2FC", "setting": "PC-12 [13]", "value": ">0.4"}, {"measurement": "Activity", "setting": "PC-12 [14]", "value": "Active"}, {"measurement": "log2FC", "setting": "PC-12 [15]", "value": ">0.4"}, {"measurement": "log2FC", "setting": "PC-12 [16]", "value": ">0.4"}, {"measurement": "log2FC", "setting": "PC-12 [17]", "value": ">0.4"}, {"measurement": "log2FC", "setting": "PC-12 [18]", "value": ">0.4"}, {"measurement": "log2FC", "setting": "PC-12 [19]", "value": ">0.4"}, {"measurement": "log2FC", "setting": "PC-12 [20]", "value": ">0.4"}, {"measurement": "log2FC", "setting": "PC-12 [21]", "value": ">0.4"}, {"measurement": "log2FC", "setting": "PC-12 [22]", "value": ">0.4"}, {"measurement": "log2FC", "setting": "PC-12 [23]", "value": ">0.4"}, {"measurement": "log2FC", "setting": "PC-12 [24]", "value": ">0.4"}, {"measurement": "log2FC", "setting": "PC-12 [25]", "value": ">0.4"}, {"measurement": "log2FC", "setting": "PC-12 [26]", "value": ">0.4"}]}]}
